Data reported in ChEMBL document CHEMBL3885881, “DrugMatrix”.

Species: Rattus norvegicus
Test: DrugMatrix - Regimen: Daily Repeat
Type: toxicity, organism-based, Sprague-Dawley
Parameters: regimen Daily Repeat, gender Male, age 6-8 weeks
Conditions: in vivo, po, route oral GAVAGE, vehicle .5 % CMC; for ABSOLUTE BASOPHIL / ABSOLUTE EOSINOPHIL / ABSOLUTE LYMPHOCYTE / ABSOLUTE MONOCYTE / ABSOLUTE SEGMENTED NEUTROPHIL / BASOPHIL / EOSINOPHIL / ERYTHROCYTE COUNT / HEMATOCRIT / HEMOGLOBIN / LEUKOCYTE COUNT / LYMPHOCYTE / MEAN CORPUSCULAR HEMOGLOBIN / MEAN CORPUSCULAR HEMOGLOBIN CONCENTRATION / MEAN CORPUSCULAR VOLUME / MONOCYTE / NEUTROPHIL / NUCLEATED RED BLOOD CELLS / PLATELET COUNT: tissue Blood; for ALANINE AMINOTRANSFERASE / ALBUMIN / ALKALINE PHOSPHATASE / ASPARTATE AMINOTRANSFERASE / BLOOD UREA NITROGEN / CARBON DIOXIDE / CHLORIDE / CHOLESTEROL / CREATINE PHOSPHOKINASE / CREATININE / GLUCOSE / LACTATE DEHYDROGENASE / LIPASE / PHOSPHORUS / POTASSIUM / SODIUM / TOTAL BILIRUBIN / TOTAL PROTEIN / URIC ACID: tissue Plasma
[1] = 0 mg/kg, 72 h, dose level Control, time 3 day
[2] = 0 mg/kg, 120 h, dose level Control, time 5 day
[3] = 200 mg/kg, 72 h, dose level Low, time 3 day

## CCn1cc(C(=O)O)c(=O)c2cc(F)c(N3CCNCC3)cc21 [NORFLOXACIN]
[1]
  ABSOLUTE BASOPHIL: 0 CELLS/uL
  ABSOLUTE EOSINOPHIL: 0 CELLS/uL
  ABSOLUTE LYMPHOCYTE: 12269.67 CELLS/uL
  ABSOLUTE MONOCYTE: 160.33 CELLS/uL
  ABSOLUTE SEGMENTED NEUTROPHIL: 970 CELLS/uL
  BASOPHIL: 0%
  EOSINOPHIL: 0%
  ERYTHROCYTE COUNT: 5.76 x10E6/uL
  HEMATOCRIT: 36.57%
  HEMOGLOBIN: 14.22 G/DL
  LEUKOCYTE COUNT: 13.4 x10E3/uL
  LYMPHOCYTE: 91.67%
  MEAN CORPUSCULAR HEMOGLOBIN: 24.67 pg
  MEAN CORPUSCULAR HEMOGLOBIN CONCENTRATION: 38.85 G/DL
  MEAN CORPUSCULAR VOLUME: 63.52 fL
  MONOCYTE: 1.17%
  NEUTROPHIL: 7.17%
  NUCLEATED RED BLOOD CELLS: 0.33 /100WBC
  PLATELET COUNT: 1250.83 x10E3/uL
  ALANINE AMINOTRANSFERASE: 49.17 u/L
  ALBUMIN: 4.33 G/DL
  ALKALINE PHOSPHATASE: 378.5 u/L
  ASPARTATE AMINOTRANSFERASE: 82.17 u/L
  BLOOD UREA NITROGEN: 15 mg/dL
  CARBON DIOXIDE: 34.33 mmol/L
  CHLORIDE: 99.17 MEQ/L
  CHOLESTEROL: 71.17 mg/dL
  CREATINE PHOSPHOKINASE: 258.67 u/L
  CREATININE: 0.18 mg/dL
  GLUCOSE: 142.67 mg/dL
  LACTATE DEHYDROGENASE: 154.33 u/L
  LIPASE: 9 u/L
  PHOSPHORUS: 11.67 mg/dL
  POTASSIUM: 7.13 MEQ/L
  SODIUM: 142.22 MEQ/L
  TOTAL BILIRUBIN: 0.18 mg/dL
  TOTAL PROTEIN: 5.77 G/DL
  URIC ACID: 1.55 mg/dL
[2]
  ABSOLUTE BASOPHIL: 0 CELLS/uL
  ABSOLUTE EOSINOPHIL: 23.33 CELLS/uL
  ABSOLUTE LYMPHOCYTE: 14943.67 CELLS/uL
  ABSOLUTE MONOCYTE: 32 CELLS/uL
  ABSOLUTE SEGMENTED NEUTROPHIL: 1084.33 CELLS/uL
  BASOPHIL: 0%
  EOSINOPHIL: 0.17%
  ERYTHROCYTE COUNT: 5.71 x10E6/uL
  HEMATOCRIT: 35.28%
  HEMOGLOBIN: 14.27 G/DL
  LEUKOCYTE COUNT: 16.08 x10E3/uL
  LYMPHOCYTE: 93%
  MEAN CORPUSCULAR HEMOGLOBIN: 25.02 pg
  MEAN CORPUSCULAR HEMOGLOBIN CONCENTRATION: 40.43 G/DL
  MEAN CORPUSCULAR VOLUME: 61.82 fL
  MONOCYTE: 0.17%
  NEUTROPHIL: 6.67%
  NUCLEATED RED BLOOD CELLS: 0.33 /100WBC
  PLATELET COUNT: 1274 x10E3/uL
  ALANINE AMINOTRANSFERASE: 54.17 u/L
  ALBUMIN: 4.22 G/DL
  ALKALINE PHOSPHATASE: 373.17 u/L
  ASPARTATE AMINOTRANSFERASE: 81.83 u/L
  BLOOD UREA NITROGEN: 16.67 mg/dL
  CARBON DIOXIDE: 30.33 mmol/L
  CHLORIDE: 99 MEQ/L
  CHOLESTEROL: 71 mg/dL
  CREATINE PHOSPHOKINASE: 273.5 u/L
  CREATININE: 0.22 mg/dL
  GLUCOSE: 141.83 mg/dL
  LACTATE DEHYDROGENASE: 153.67 u/L
  LIPASE: 10.33 u/L
  PHOSPHORUS: 11.38 mg/dL
  POTASSIUM: 7.08 MEQ/L
  SODIUM: 142.75 MEQ/L
  TOTAL BILIRUBIN: 0.18 mg/dL
  TOTAL PROTEIN: 6.1 G/DL
  URIC ACID: 1.67 mg/dL
[3]
  ABSOLUTE BASOPHIL: 0 CELLS/uL
  ABSOLUTE EOSINOPHIL: 0 CELLS/uL
  ABSOLUTE LYMPHOCYTE: 11949 CELLS/uL
  ABSOLUTE MONOCYTE: 111 CELLS/uL
  ABSOLUTE SEGMENTED NEUTROPHIL: 1006.67 CELLS/uL
  BASOPHIL: 0%
  EOSINOPHIL: 0%
  ERYTHROCYTE COUNT: 5.6 x10E6/uL
  HEMATOCRIT: 36.17%
  HEMOGLOBIN: 14.13 G/DL
  LEUKOCYTE COUNT: 13.07 x10E3/uL
  LYMPHOCYTE: 91.67%
  MEAN CORPUSCULAR HEMOGLOBIN: 25.27 pg
  MEAN CORPUSCULAR HEMOGLOBIN CONCENTRATION: 39.07 G/DL
  MEAN CORPUSCULAR VOLUME: 64.63 fL
  MONOCYTE: 1%
  NEUTROPHIL: 7.33%
  NUCLEATED RED BLOOD CELLS: 0 /100WBC
  PLATELET COUNT: 1470.67 x10E3/uL
  ALANINE AMINOTRANSFERASE: 63.33 u/L
  ALBUMIN: 4.33 G/DL
  ALKALINE PHOSPHATASE: 468 u/L
  ASPARTATE AMINOTRANSFERASE: 89 u/L
  BLOOD UREA NITROGEN: 13.67 mg/dL
  CARBON DIOXIDE: 28 mmol/L
  CHLORIDE: 102 MEQ/L
  CHOLESTEROL: 54.33 mg/dL
  CREATINE PHOSPHOKINASE: 294 u/L
  CREATININE: 0.26 mg/dL
  GLUCOSE: 137.33 mg/dL
  LACTATE DEHYDROGENASE: 260.67 u/L
  LIPASE: 10 u/L
  PHOSPHORUS: 13.5 mg/dL
  POTASSIUM: 6.81 MEQ/L
  SODIUM: 146.4 MEQ/L
  TOTAL BILIRUBIN: 0.23 mg/dL
  TOTAL PROTEIN: 6 G/DL
  URIC ACID: 2.13 mg/dL
